Test results taken from patent US11117900B2 (Vertex Pharmaceuticals Incorporated, priority 2012, dated 2021).

Tested on: HCT116 colorectal cancer cells
Experiment: Cisplatin sensitization assay (96 h MTS cell viability);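 further: compound concentration needed to lower the IC50 of Cisplatin alone by a set fold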
Type: cell-based
Settings: Cisplatin sensitization value
In short: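 HCT116 cells were dosed simultaneously with compound and cisplatin as a full matrix of 2-fold serial dilutions from 10 μM top final concentration. Incubation was 96 h at 37° C., 5% CO2, followed by 1 h with MTS reagent for the viability read-out. Sensitization values were binned into +++, ++ and + categories.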

Question: How did the “Cisplatin Sensitization Assay” value turn out when `CN1CCN(C(=O)[C@H]2CC[C@@H](Oc3ccncc3NC(=O)c3c(N)nn4cc(F)cnc34)CC2)CC1` [I-O-19, 2-amino-6-fluoro-N-(4-(((1s,4s)-4-(4-methylpiperazine-1-carbonyl)cyclohexyl)oxy)pyridin-3-yl)pyrazolo[1,5-a]pyrimidine-3-carboxamide] was run?
Answer: Its value is “+++ (Compounds with a Cisplatin sensitization value of <0.02 μM are marked with “+++.”)”.

Question: With `Nc1nn2cc(F)cnc2c1C(=O)Nc1cncc(F)c1N1CCNCC1` [I-N-118, 2-amino-6-fluoro-N-(5-fluoro-4-(piperazin-1-yl)pyridin-3-yl)pyrazolo[1,5-a]pyrimidine-3-carboxamide] as the molecule, how does the “Cisplatin Sensitization Assay” value read?
Answer: The value was “+++ (Compounds with a Cisplatin sensitization value of <0.02 μM are marked with “+++.”)”.

Question: How did the “Cisplatin Sensitization Assay” value turn out when `Nc1nn2cc(F)cnc2c1C(=O)Nc1cncc(F)c1N1CCC(C(=O)N2CCC2)CC1` [I-G-8, 2-amino-N-(4-(4-(azetidine-1-carbonyl)piperidin-1-yl)-5-fluoropyridin-3-yl)-6-fluoropyrazolo[1,5-a]pyrimidine-3-carboxamide] was run?
Answer: Its value is “+++ (Compounds with a Cisplatin sensitization value of <0.02 μM are marked with “+++.”)”.

Question: With `CN1CCCCC1C(=O)N1CCN(c2c(F)cncc2NC(=O)c2c(N)nn3cc(F)cnc23)CC1` (centres unmarked) [I-N-173, 2-amino-6-fluoro-N-(5-fluoro-4-(4-(1-methylpiperidine-2-carbonyl)piperazin-1-yl)pyridin-3-yl)pyrazolo[1,5-a]pyrimidine-3-carboxamide] as the molecule, how does the “Cisplatin Sensitization Assay” value read?
Answer: The value was “+++ (Compounds with a Cisplatin sensitization value of <0.02 μM are marked with “+++.”)”.

Question: For `Nc1nn2cc(F)cnc2c1C(=O)Nc1cnccc1N1CCN(C2CC2)CC1` [I-N-33, 2-amino-N-(4-(4-cyclopropylpiperazin-1-yl)pyridin-3-yl)-6-fluoropyrazolo[1,5-a]pyrimidine-3-carboxamide], which “Cisplatin Sensitization Assay” value is on record?
Answer: The value was “+ (Compounds with a Cisplatin sensitization value >0.2 μM but <5 μM are marked with “+.”)”.

Question: With `CCOc1ccncc1NC(=O)c1c(N)nn2cc(Cl)cnc12` [I-O-56, 2-amino-6-chloro-N-(4-ethoxypyridin-3-yl)pyrazolo[1,5-a]pyrimidine-3-carboxamide] as the molecule, how does the “Cisplatin Sensitization Assay” value read?
Answer: Its value is “+++ (Compounds with a Cisplatin sensitization value of <0.02 μM are marked with “+++.”)”.

Question: With `Cc1ccncc1-c1ccncc1NC(=O)c1c(N)nn2cc(F)cnc12` [I-C-30, 2-amino-6-fluoro-N-(4-methyl-[3,4′-bipyridin]-3′-yl)pyrazolo[1,5-a]pyrimidine-3-carboxamide] as the molecule, how does the “Cisplatin Sensitization Assay” value read?
Answer: The value was “+++ (Compounds with a Cisplatin sensitization value of <0.02 μM are marked with “+++.”)”.

Question: How did the “Cisplatin Sensitization Assay” value turn out when `CCOc1ccncc1NC(=O)c1c(N)nn2cc(CC#N)cnc12` [I-O-28, 2-amino-6-(cyanomethyl)-N-(4-ethoxypyridin-3-yl)pyrazolo[1,5-a]pyrimidine-3-carboxamide] was run?
Answer: Its value is “+++ (Compounds with a Cisplatin sensitization value of <0.02 μM are marked with “+++.”)”.

Question: For `Nc1nn2cc(F)cnc2c1C(=O)Nc1cnccc1N1CCN(C2CCOCC2)CC1` [I-N-11, 2-amino-6-fluoro-N-(4-(4-(tetrahydro-2H-pyran-4-yl)piperazin-1-yl)pyridin-3-yl)pyrazolo[1,5-a]pyrimidine-3-carboxamide], which “Cisplatin Sensitization Assay” value is on record?
Answer: The value was “++ (Compounds with a Cisplatin sensitization value >0.02 μM but <0.2 μM are marked with “++.”)”.

Question: How did the “Cisplatin Sensitization Assay” value turn out when `Cc1ncn(-c2ccncc2NC(=O)c2c(N)nn3cc(F)cnc23)n1` [I-N-161, 2-amino-6-fluoro-N-(4-(3-methyl-1H-1,2,4-triazol-1-yl)pyridin-3-yl)pyrazolo[1,5-a]pyrimidine-3-carboxamide] was run?
Answer: Its value is “+ (Compounds with a Cisplatin sensitization value >0.2 μM but <5 μM are marked with “+.”)”.

Question: How did the “Cisplatin Sensitization Assay” value turn out when `CN1CCC(c2ccncc2NC(=O)c2c(N)nn3cc(F)cnc23)CC1` [I-C-1, 2-amino-6-fluoro-N-(4-(1-methylpiperidin-4-yl)pyridin-3-yl)pyrazolo[1,5-a]pyrimidine-3-carboxamide] was run?
Answer: The value was “++ (Compounds with a Cisplatin sensitization value >0.02 μM but <0.2 μM are marked with “++.”)”.
